Laboratory results: US11028051B2, “Tetrahydroquinoline-based bromodomain inhibitors” (St. Jude Children's Research Hospital, priority 2016, dated 2021)

Legend:
Test in all cases: competitive TR-FRET assay, BET-BD with acetylated peptide ligand
Assay type in all cases: binding
BRD2-BD1 = BRD2-BD1 (Homo sapiens (Human), UniProt P25440); details: BRD2-BD1; Table 11 additional modifications; read-out: 2.1 EC50
Method: (§1) Inhibitor potency was determined using a competitive TR-FRET assay as detailed herein, measuring interaction of the respective BET-BD with an acetylated peptide ligand (Table 2).

BRD2-BD2 = BRD2-BD2 (Homo sapiens (Human), UniProt P25440); details: for EC50: BRD2-BD2, Table 11 additional modifications, read-out: 2.2 EC50; for 2.1/2.2: ratio of BRD2-BD1 EC50 to BRD2-BD2 EC50 (selectivity)
Method: as §1

BRD3-BD1 = BRD3-BD1 (Homo sapiens (Human), UniProt Q15059); details: BRD3-BD1; Table 11 additional modifications; read-out: 3.1 EC50
Method: as §1

BRD4-BD1 = BRD4-BD1 (Homo sapiens (Human), UniProt O60885); details: BRD4-BD1; Table 11 additional modifications; read-out: 4.1 EC50
Method: as §1

BRDT = BRDT (Homo sapiens, UniProt Q58F21); details: BRDT; Table 11 additional modifications; read-out: BRDT EC50
Method: as §1

BRD3-BD1, sequence (Q15059 34-140): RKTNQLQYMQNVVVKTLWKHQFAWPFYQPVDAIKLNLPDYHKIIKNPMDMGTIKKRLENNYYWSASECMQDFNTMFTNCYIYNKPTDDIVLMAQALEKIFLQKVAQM
BRD2-BD2, sequence (P25440 344-453): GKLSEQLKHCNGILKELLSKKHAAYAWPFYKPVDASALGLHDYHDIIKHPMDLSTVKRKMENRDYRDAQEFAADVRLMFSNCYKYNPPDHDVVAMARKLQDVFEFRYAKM
BRD2-BD1, sequence (P25440 74-180): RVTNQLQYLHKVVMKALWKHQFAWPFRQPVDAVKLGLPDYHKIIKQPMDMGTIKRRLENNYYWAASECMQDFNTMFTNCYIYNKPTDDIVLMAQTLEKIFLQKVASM

Row | SMILES | EC50 (BRD2-BD1) | EC50 (BRD2-BD2) | 2.1/2.2 (BRD2-BD2) | EC50 (BRD3-BD1) | EC50 (BRD4-BD1) | EC50 (BRDT)
1 | CC(=O)N1c2ccc(-c3cccc(NCCC(C)C)c3)cc2[C@H](NC(=O)OC(C)C)C[C@@H]1C [compound 100] | 3.8 µM | 40000 nM | 7.3 | 690 nM | 6 µM | 40 µM
2 | CCCC(=O)Nc1cccc(-c2ccc3c(c2)[C@H](NC(=O)OC(C)C)C[C@H](C)N3C(C)=O)c1 [compound 101] | 1.1 µM | 110 nM | 3.3 | 340 nM | 0.95 µM | 1.3 µM
3 | CC(=O)N1c2ccc(-c3cccc(NC(=O)C4CCC(C)CC4)c3)cc2[C@H](NC(=O)OC(C)C)C[C@@H]1C (stereo partly drawn) [compound 102] | 4.8 µM | 430 nM | 40 | 530 nM | 3.8 µM | 1.2 µM
4 | CC(=O)N1c2ccc(-c3cccc(NCc4ccc(C)cc4)c3)cc2[C@H](NC(=O)OC(C)C)C[C@@H]1C [compound 103] | 3.7 µM | 2800 nM | 13 | 890 nM | 3.5 µM | 4.8 µM
5 | CC(=O)N1c2ccc(-c3cccc(NC(=O)CC(C)C)c3)cc2[C@H](NC(=O)OC(C)C)C[C@@H]1C [compound 104] | 1.6 µM | 290 nM | 7.8 | 410 nM | 0.94 µM | 1.6 µM
6 | CC(=O)N1c2ccc(-c3cccc(NCC4CCOC4)c3)cc2[C@H](NC(=O)OC(C)C)C[C@@H]1C (stereo partly drawn) [compound 105] | 0.4 µM | 30 nM | 0.095 | 100 nM | 0.2 µM | 1.1 µM
7 | CC(=O)N1c2ccc(-c3cccc(NCCC(C)(C)C)c3)cc2[C@H](NC(=O)OC(C)C)C[C@@H]1C [compound 106] | 3.9 µM | 43000 nM | 10 | 980 nM | 3.3 µM | 7 µM
8 | CC(=O)N1c2ccc(-c3cccc(NC(=O)c4ccccc4)c3)cc2[C@H](NC(=O)OC(C)C)C[C@@H]1C [compound 107] | 1.2 µM | 160 nM | 11 | 170 nM | 0.81 µM | 0.49 µM
9 | COc1cccc(-c2ccc3c(c2)[C@H](Nc2ccc(Cl)cc2)C[C@H](C)N3C(C)=O)c1 [compound 147] | 7.2 µM | 1600 nM | 7.4 | 9400 nM | – | 17 µM
10 | CC(=O)N1c2ccc(-c3cccc(N(CCC(C)C)CCC(C)C)c3)cc2[C@H](Nc2ccccc2OC(F)(F)F)C[C@@H]1C [compound 148] | 90 µM | 34000 nM | 16 | > 90000 nM | – | > 90 µM
11 | CC(=O)N(C)c1cccc(-c2ccc3c(c2)[C@H](Nc2ccc(Cl)cc2)C[C@H](C)N3C(C)=O)c1 [compound 149] | 1.3 µM | 140 nM | 10 | 1000 nM | – | 3.6 µM
12 | CCCCCN(CCCCC)c1cccc(-c2ccc3c(c2)[C@H](Nc2ccccc2OC(F)(F)F)C[C@H](C)N3C(C)=O)c1 [compound 150] | 72 µM | 22000 nM | 13 | > 72000 nM | – | > 72 µM
13 | CC(=O)N1c2ccc(-c3cccc(NCC4CCOC4)c3)cc2[C@H](Nc2ccccc2OC(F)(F)F)C[C@@H]1C (stereo partly drawn) [compound 151] | 14 µM | 670 nM | 49 | 8300 nM | – | 26 µM
14 | CC(=O)N1c2ccc(-c3cccc(N(CC4CC4)CC4CC4)c3)cc2[C@H](Nc2ccccc2OC(F)(F)F)C[C@@H]1C [compound 152] | 79 µM | 8400 nM | – | 78000 nM | – | > 79 µM
15 | CC(=O)N1c2ccc(-c3cccc(NCCC(F)(F)F)c3)cc2[C@H](Nc2ccccc2OC(F)(F)F)C[C@@H]1C [compound 153] | 90 µM | 1700 nM | 8.2 | 39000 nM | – | > 90 µM
16 | CC(=O)N1c2ccc(-c3cccc(NC4CCCC4)c3)cc2[C@H](Nc2ccccc2OC(F)(F)F)C[C@@H]1C [compound 154] | 20 µM | 1800 nM | 4.6 | 27000 nM | – | > 84 µM
17 | CCCN(CCC)c1cccc(-c2ccc3c(c2)[C@H](Nc2ccccc2OC(F)(F)F)C[C@H](C)N3C(C)=O)c1 [compound 155] | 17 µM | 5700 nM | 2.6 | 79000 nM | – | > 84 µM
18 | COc1cc(F)ccc1N[C@@H]1C[C@H](C)N(C(C)=O)c2ccc(-c3cccc(CNCC(F)(F)F)c3)cc21 [compound 169] | > 30 µM | – | – | > 30000 nM | > 30 µM | > 30 µM
